Reference: paper PMC8355244, “A fragment-based approach identifies an allosteric pocket that impacts malate dehydrogenase activity” (Communications Biology, 2021)
Like-named read-outs stand apart in the source and are kept apart here.

Molecular target: T1, WT PfMDH (Plasmodium falciparum, UniProt Q6VVP7)
T1 construct: The full-length WT PfMDH gene was cloned into pETM-13; made in house; host or cells: E. coli Rosetta 2 (DE3) pLysS
Assay: Activity screening of 4DT / 4-phenylthiazol-2-amine derivatives (oxidation of malate, absorbance at 340 nm)
Format: biochemical
Details: for inhibition at 500 µM: Dunnett's multiple comparisons test, read-out: Mean Diff. (positive control vs. compound); for Slope repl1 / Slope repl2: linear regression slope of absorbance 340 nm vs time; for Slope normalized repl1: slope relative to control = 1, replicate 1; for Slope normalized repl2: slope relative to control = 1, replicate 2
Method: The oxidation of malate to oxaloacetate was assayed spectrophotometrically in flat-bottomed Corning 96-well microplates in a total volume of 250.0 µl in 50 mM glycine buffer pH 10.2[24] with an additional 400 mM NaCl for protein stability. The increase of absorbance at 340 nm was recorded in kinetic mode using a Tecan Spark multimode microplate reader at 298 K. A mastermix of 50 mM NAD+ and 44 μM PfMDH was used for both the screening and kinetics experiments. The final concentration of protein and cofactor were […], respectively. Positive control groups were set (absence of compound) in the same plate as the treated group. The absorbance from the background noise was subtracted from the data and then a linear regression model was employed in order to get the line slope from the first 5 min of the reaction. The percentage of enzymatic activity has been calculated as described by Eq. (1)1 enzymeactivity(%)=slopetreated/slopepositivecontrol*100
1.3 µL of derivatives of 4-phenylthiazol-2-amine in 100% DMSO were mixed with 237.7 µL of a mastermix of WT PfMDH previously incubated with NAD+. The final compound concentration used in this screening was 500 µM in the presence of 0.5% (v/v) DMSO. The microplate was sealed with silver foil for 1-h incubation at 25–35 °C. Finally, reactions in both the samples and control wells were started upon the addition of 13.0 µL of 5 mM malate). At the end of the experiments, the reaction of the plate was spectrophotometrically assayed at 600 nm in order to identify turbidity due to the low solubility of the compound. All measurements were performed in duplicate.

[1] = 500 µM compound, Dunnett test details, positive control mean 100, n 2, read-out: Mean 2 (mean % enzymatic activity of treated group)
[2] = 500 µM compound, control 100%, replicate 1, read-out: % enzymatic activity repl1
[3] = 500 µM compound, control 100%, replicate 2, read-out: % enzymatic activity repl2

T1 sequence (Q6VVP7 entry or part of it): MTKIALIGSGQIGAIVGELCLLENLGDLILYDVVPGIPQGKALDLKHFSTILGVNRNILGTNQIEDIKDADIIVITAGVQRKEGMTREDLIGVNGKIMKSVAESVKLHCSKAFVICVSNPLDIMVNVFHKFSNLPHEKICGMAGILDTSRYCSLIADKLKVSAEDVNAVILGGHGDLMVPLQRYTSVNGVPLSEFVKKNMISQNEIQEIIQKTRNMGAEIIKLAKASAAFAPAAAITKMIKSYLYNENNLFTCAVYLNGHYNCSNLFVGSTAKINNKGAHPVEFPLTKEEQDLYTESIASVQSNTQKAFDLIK

Row | Structure (SMILES) | remaining activity at 500 µM [1] [%] | inhibition at 500 µM (500 µM compound) [%] | remaining activity at 500 µM [2] [%] | remaining activity at 500 µM [3] [%] | Slope repl1 (500 µM compound, replicate 1) | Slope repl2 (500 µM compound, replicate 2) | Slope normalized repl1 (500 µM compound) | Slope normalized repl2 (500 µM compound) | remaining activity at 500 µM (read-out: enzyme activity) [%]
1 | O=C(O)c1cc(-c2cccs2)on1 [compound 1b] | 60 | 40.5 | 65 | 54 | 0.0217 | 0.019 | 0.6515 | 0.5422 | 60
2 | O=C(O)c1nc(-c2ccccc2)cs1 [4a] | 65 | 35 | 64 | 66 | 0.02124 | 0.02324 | 0.6376 | 0.6632 | 65
3 | NCc1ccc(-c2csnn2)cc1 [2b] | 65 | 35 | 83 | 47 | 0.02772 | 0.01654 | 0.8322 | 0.472 | 65
